# From ChEMBL document CHEMBL1145122, “Structure-based design of novel guanidine/benzamidine mimics: potent and orally bioavailable factor Xa inhibitors as novel anticoagulants” (J Med Chem, 2003)
# How the values were obtained:
# [1] = in vivo; settings: dog, po
# [2] = organism: Oryctolagus cuniculus; assay: Dose required for inhibition of thrombus formation in rabbit arterial-venous shunt antithrombosis model; type: functional
# [3] = in vivo; settings: dog
# [4] = system: plasma protein binding (Homo sapiens); assay: Percentage binding to human plasma proteins
# [5] = physchem
# [6] = target: Prothrombin (Homo sapiens, UniProt P00734); assay: Inhibitory activity against Thrombin
# [7] = organism: Oryctolagus cuniculus; assay: Concentration required for inhibition of thrombus formation in rabbit arterial-venous shunt antithrombosis model; type: functional, organism-based
# [8] = target: Trypsin (Homo sapiens, UniProt P07477+P07478+P35030); assay: Inhibition of Trypsin; type: protein assay
# [9] = in vivo; settings: dog; remark: listed apart in the source
# [10] = target: Coagulation factor X (Homo sapiens, UniProt P00742); assay: Inhibitory activity against Coagulation factor X (FXa)
# Coagulation factor X, sequence (P00742 41-179 limits assumed): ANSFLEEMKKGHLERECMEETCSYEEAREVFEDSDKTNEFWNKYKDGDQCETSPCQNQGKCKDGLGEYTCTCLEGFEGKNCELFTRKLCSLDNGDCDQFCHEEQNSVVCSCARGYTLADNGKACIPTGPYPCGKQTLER
# Coagulation factor X, sequence (P00742 235-488 limits assumed): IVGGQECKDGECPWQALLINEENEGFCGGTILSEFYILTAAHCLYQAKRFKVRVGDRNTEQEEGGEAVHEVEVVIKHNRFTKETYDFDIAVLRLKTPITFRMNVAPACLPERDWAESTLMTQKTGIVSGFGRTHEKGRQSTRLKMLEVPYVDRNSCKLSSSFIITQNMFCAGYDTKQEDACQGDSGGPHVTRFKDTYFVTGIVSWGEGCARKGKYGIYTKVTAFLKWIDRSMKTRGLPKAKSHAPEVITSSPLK
# [11] = in vivo; settings: dog, po; remark: listed apart in the source
# [12] = physchem; settings: octanol/water
# [13] = in vivo; settings: dog, iv
# [14] = in vivo; settings: dog, po; remark: listed apart in the source
# [15] = physchem; settings: octanol/water; remark: listed apart in the source
pKa [5],Ki [6],Ki [8],Ki [10],Compound,further results
6.7,6500 nM,2600 nM,0.33 nM,Cc1cc(C(=O)Nc2ccc(-c3ccccc3S(N)(=O)=O)cc2)n(-c2ccc3ccnc(N)c3c2)n1,bioavailability [1]: 13%; ID50 [2]: 1.2 µM/h/kg; clearance [3]: 5.5 mL/min/kg; Binding [4]: 89%; IC50 [7]: 690 nM; Vd [9]: 1.2 L/kg; half-life [11]: 4.4 h; logP [12]: 2.6; half-life [13]: 3.4 h
< 0,> 21000 nM,> 1600 nM,–,Cc1cc(C(=O)Nc2ccc(-c3ccccc3S(N)(=O)=O)cc2)n(-c2cccc(C(N)=O)c2)n1,clearance [3]: 4.67 mL/min/kg; half-life [11]: 3.9 h; bioavailability [14]: 46%; logP [12]: 2.1; half-life [13]: 3.1 h
–,> 21000 nM,–,–,Cc1cc(C(=O)Nc2ccc(-c3ccccc3S(N)(=O)=O)cc2)n(-c2cccc(CN)c2)n1,–
4.7,> 21000 nM,–,3000 nM,Cc1cc(C(=O)Nc2ccc(-c3ccccc3S(N)(=O)=O)cc2)n(-c2ccc(N)cc2)n1,–
–,> 21000 nM,> 1600 nM,2800 nM,Cc1cc(C(=O)Nc2ccc(-c3ccccc3S(N)(=O)=O)cc2)n(-c2ccc3c(N)[nH]nc3c2)n1,–
5.4,> 21000 nM,> 1600 nM,370 nM,Cc1cc(C(=O)Nc2ccc(-c3ccccc3S(N)(=O)=O)cc2)n(-c2ccc3ccncc3c2)n1,–
5.7,> 21000 nM,> 1600 nM,29 nM,Cc1cc(C(=O)Nc2ccc(-c3ccccc3S(N)(=O)=O)cc2)n(-c2ccc3ncnc(N)c3c2)n1,–
–,> 21000 nM,–,29 nM,Cc1cc(C(=O)Nc2ccc(-c3ccccc3S(N)(=O)=O)cc2)n(-c2ccc3[nH]nc(N)c3c2)n1,–
4.7,> 21000 nM,> 1600 nM,63 nM,Cc1cc(C(=O)Nc2ccc(-c3ccccc3S(N)(=O)=O)cc2)n(-c2cccc(N)c2)n1,–
–,> 21000 nM,–,5000 nM,Cc1cc(C(=O)Nc2ccc(-c3ccccc3S(N)(=O)=O)cc2)n(-c2cccc(S(N)(=O)=O)c2)n1,–
< 2.3,> 21000 nM,> 1600 nM,1.4 nM,Cc1cc(C(=O)Nc2ccc(-c3ccccc3S(N)(=O)=O)cc2)n(-c2ccc3onc(N)c3c2)n1,logP [15]: 2.3; clearance [3]: 5 mL/min/kg; Vd [9]: 0.7 L/kg; half-life [11]: 3.2 h; bioavailability [14]: 26%; half-life [13]: 2.8 h
7,> 2100 nM,–,1300 nM,Cc1cc(C(=O)Nc2ccc(-c3ccccc3S(N)(=O)=O)cc2)n(-c2ccc(N)nc2)n1,–
–,> 21000 nM,> 1600 nM,37 nM,Cc1cc(C(=O)Nc2ccc(-c3ccccc3S(N)(=O)=O)cc2)n(-c2cccc(Cl)c2)n1,–
8.1,> 21000 nM,> 1600 nM,16 nM,Cc1cc(C(=O)Nc2ccc(-c3ccccc3S(N)(=O)=O)cc2)n(-c2ccc3nc(N)nc(N)c3c2)n1,–

# More lines, now with the values behind:
Compound,pKa [5],Ki [6],Ki [8],Ki [10],further results
Cc1cc(C(=O)Nc2ccc(-c3ccccc3S(N)(=O)=O)cc2)n(CCCCN)n1,10,> 21000 nM,–,12000 nM,–
Cc1cc(C(=O)Nc2ccc(-c3ccccc3S(N)(=O)=O)cc2)n(-c2ccccc2N)n1,4.7,> 21000 nM,–,600 nM,–
Cc1cc(C(=O)Nc2ccc(-c3ccccc3S(N)(=O)=O)cc2)n(-c2cccc(C#N)c2)n1,–,> 21000 nM,–,310 nM,–
Cc1cc(C(=O)Nc2ccc(-c3ccccc3S(N)(=O)=O)cc2)n(-c2cccc(S(C)=N)c2)n1 (stereo unspecified),–,> 21000 nM,–,2700 nM,–
Cc1cc(C(=O)Nc2ccc(-c3ccccc3S(N)(=O)=O)cc2)n(-c2ccccc2)n1,–,> 21000 nM,> 1600 nM,198 nM,–
Cc1cc(C(=O)Nc2ccc(-c3ccccc3S(N)(=O)=O)cc2)n(C2CCCNC2)n1 (stereo unspecified),10,> 21000 nM,–,–,–
Cc1cc(C(=O)Nc2ccc(-c3ccccc3S(N)(=O)=O)cc2)n(-c2cccc(C(=N)NO)c2)n1,7,> 21000 nM,> 1600 nM,19 nM,–
COc1ccc(-n2nc(C)cc2C(=O)Nc2ccc(-c3ccccc3S(N)(=O)=O)cc2)cc1,< 0,> 21000 nM,> 1600 nM,11 nM,clearance [3]: 1.5 mL/min/kg; Vd [9]: 0.52 L/kg; half-life [11]: 4.5 h; bioavailability [14]: 48%; logP [12]: 2.9; half-life [13]: 4.5 h
Cc1cc(C(=O)Nc2ccc(-c3ccccc3S(N)(=O)=O)cc2)n(-c2cccc(B(O)O)c2)n1,–,> 21000 nM,> 1600 nM,61 nM,–
